In US11116746B2, “Use of rice bran oil distillate extract for prevention and mitigation of the effects of radiation” (Tocol Pharmaceuticals, LLC, priority 2015, dated 2021):

Tests used:
[1] = single injection; cited from earlier work
[2] = tested on: TBHP induced lipid peroxidation in Wistar rat liver microsomes; experiment: TBARS assay: inhibition of TBHP induced microsomal lipid peroxidation; assay type: biochemical; details: microsomes pretreated 1 h, then TBHP 30 min; TRFRB expressed in μM of tocotrienols; read-out: IC50, concentration that reduced the amount of lipid peroxidation approximately 50%
Experimental: The antioxidant activity of TRFRB was assessed measuring the ability to prevent microsomal lipid peroxidation. For this a TBARS assay was performed using a modified version of the original method described by Buege and Aust, Microsomal lipid peroxidation. Methods Enzymol 1978, 52, 302-310. Briefly, rat liver microsomes (BD Bioscience) were suspended in PBS in glass tubes at final concentration of 1 mg/mL. To this, increasing concentrations of TRFRB dissolved in DMSO were added. DMSO alone was used as control. The final DMSO percentage was kept under 0.1%. Microsomes were subsequently incubated with the test compounds at 37° C. for one hour in a shaking water bath (100 rpm). After one hour, freshly made tert-Butyl hydroperoxide (TBHP) solution was added to microsomes at a final concentration of 200 μM and incubation was continued for another 30 mins. The reaction was terminated by addition of 20% trichloroacetic acid and tubes were placed on ice for 15 mins. Equal volume of 0.67% thiobarbituric acid in 0.05N NaOH was added and the final mixture was heated at 95° C. for 45 mins to allow the color to develop. Finally, the tubes were cooled on ice and centrifuged at 1000 rpm for 20 mins and the supernatant was read at 532 nm. The percent TBARS was calculated using a standard curve obtained using malondialdehyde (MDA). […]

[3] = tested on: H9c2 rat heart cardiomyocytes; experiment: Mitochondrial bioenergetics (oxygen consumption rate, XF96 analyzer) in H9c2 cells with or without H2O2; assay type: cell-based
Experimental: Oxygen consumption rate (OCR) was measured at 37° C. using an XF96 extracellular analyzer (Seahorse Bioscience) as previously described Pathak et al., Antioxid Redox Signal 2014, 20, 1436-1446. H9c2 rat heart cardiomyocytes cells were plated in 96 well Seahorse plates. The next day they were treated with either vehicle (DMSO, 0.1% v/v) or 5 μM of DT3 or 5 μM of TRFRB overnight. The cells were then treated with 50 or 100 μM H2O2 for 4 h at 37° C. The media in the wells were changed to unbuffered DMEM supplemented with 4 mM […] and incubated in a non-CO2 incubator for 1 h at 37° C. Three baseline measurements were acquired before injection of mitochondrial inhibitors or uncouplers. Readings were taken after sequential addition of oligomycin (10 μM), carbonylcyanide 4-(trifluoromethoxy)phenylhydrazone (FCCP, 10 μM) and rotenone/antimycin A (10 μM). Oxygen consumption rates were calculated by the Seahorse XF-96 software and represent an average of 3 measurements on 8 different wells. The rate of measured oxygen consumption was reported as pmol O2 consumed per minute per 10,000 cells.
Therefore, the next experiment assessed the effects of TRFRB and pure DT3 on cellular bioenergetics and mitochondrial respiration in the absence of any cellular stress. Intracellular mitochondrial function was examined by sequentially adding inhibitors of oxidative phosphorylation. Initially we took 3 measurements to determine the “basal respiration” of the cells. By injecting an inhibitor of mitochondrial ATP synthase (oligomycin), a decrease in oxygen consumption rate (OCR) was obtained and this decrease in OCR is termed as “ATP linked respiration”. In order to determine the maximal respiration potential of the cells, FCCP, an uncoupler, was used. Immediately following FCCP injection, oxygen consumption increased and cells reached to their maximum respiration. Mitochondrial “reserve respiratory capacity” was calculated by subtracting […]. Overnight (16 h) treatment of both DT3 and TRFRB increased basal oxygen consumption rate (OCR) as well as maximum OCR in H9c2 rat heart cardiomyocytes (FIG. 4A). […] 100 μM H2O2 treatment for 4 h completely halted the cellular respiration (FIGS. 4B and C).

[4] = tested on: H9c2 rat heart cardiomyocytes; experiment: Cell morphology of cardiomyocytes after H2O2 damage; assay type: cell-based; details: 5 μM pretreatment overnight; 100 and 200 μM H2O2 for 4 h
Experimental: H9c2 rat heart cardiomyocytes were treated with either vehicle control (DMSO, 0.1% v/v), 5 μM delta-tocotrienol or 5 μM TRFRB overnight. Cells were then exposed to 100 or 200 μM H2O2 for 4 h. Morphological changes were recorded under an inverted microscope. Pictures were taken at 10× magnification. Scale bar represents 400 μm.
We then investigated whether TRFRB can protect the various cells types from different tissue origins against H2O2 or IR induced oxidative damage.

HaCaT cells [5] = experiment: Mitochondrial bioenergetics (mitochondrial uncoupling) in irradiated keratinocytes; assay type: cell-based, human; details: 5 μM pretreatment 16 h prior to 8 Gy IR; 48 h following IR; normalized to sham irradiated control
Experimental: In order to determine the radioprotective effects of TRFRB, human immortalized keratinocytes (HaCaT cells) were plated in 96 well Seahorse plates. The next day they were treated with either vehicle (DMSO, 0.1% v/v) or 5 μM of DT3 or 5 μM of TRFRB overnight. The Seahorse plates were either sham irradiated or irradiated with 8 Gy of γ-irradiation. Both plates were sequentially run in the XF96 extracellular analyzer as described above.
Secondly we utilized an immortalized human skin keratinocyte line (HaCaT cells) to evaluate the radioprotective effects of TRFRB. HaCaT cells were pretreated with DMSO vehicle or 5 μM of DT3 or TRFRB for 16 h prior to 8 Gy IR. Then the cellular bioenergetics and mitochondrial respiration in these cells were assayed at 48 h following IR exposure as described with H9c2 cells. The percent mitochondrial uncoupling is defined and calculated by determining the increase in the ratio of basal respiration to maximum respiration (OCR following FCCP treatment) and the data was normalized to the sham irradiated control group.

HaCaT cells [6] = experiment: In vitro scratch assay (keratinocyte migration) after 8 Gy IR; assay type: cell-based, human; details: 5 μM given 4 h after IR exposure
Experimental: Human immortalized keratinocytes (HaCaT cells) were plated in 12 well culture plates and irradiated with 8 Gy or sham irradiated 24 h after plating. The cells were given either vehicle (DMSO, 0.1% v/v) or 5 μM of DT3 or 5 μM of TRFRB 4 hours following radiation. Culture media were replaced again at 36 h following radiation. At the 72 h time point, a scratch was made using a sterile micropipette tip in each well. This created an open area into which the keratinocytes migrated. Two areas of the scratch margins were imaged daily until scratches were closed. The area of the scratch remaining was measured on the images at five points per field, with two fixed fields averaged using Cell Analyzer 1.0 (BWTech, Iowa City, Iowa). Measurements were stopped when cells no longer made positive progress towards the scratch origin. See Ross et al., Exp Dermatol 2011, 20, 58-63.
This protection in the increased survival fraction was not statistically significant compared to 8 Gy IR alone group (FIG. 7). An in vitro scratch assay was utilized to evaluate the protective efficacy of TRFRB for keratinocyte migration function when the cells were treated with TRFRB after IR exposure.

Structure (SMILES) | dose reduction factor (DRF) as a radioprotectant [1] | IC50 [2] [µM] | mitochondrial respiration following H2O2 injury ([3]; 5 μM for 16 h prior to 50 or 100 μM H2O2 for 4 h) | basal oxygen consumption rate (OCR) ([3]; 5 μM overnight (16 h), no cellular stress) | maximum OCR ([3]; 5 μM overnight (16 h), no cellular stress, after FCCP) | reserve respiratory capacity ([3]; calculated from maximum and basal OCR) | protection of cell morphology against H2O2 treatment [4] | dose reduction factor (DRF) as a radiomitigator [1] | degree of mitochondrial uncoupling (HaCaT cells [5]) | migration rates (HaCaT cells [6])
CC(C)=CCC/C(C)=C/CC/C(C)=C/CC[C@]1(C)CCc2cc(O)c(C)c(C)c2O1 [GT3, γ-tocotrienol] | 1.29 | 7 |  |  |  |  |  |  |  | 
CC(C)=CCC/C(C)=C/CC/C(C)=C/CC[C@]1(C)CCc2cc(O)cc(C)c2O1 [DT3, δ-tocotrienol] | 1.27 |  | complete protection and restored the mitochondrial respiration | increased | increased | an increase in reserve respiratory capacity | significantly protected the morphology | 1.1 | this increase was reversed | partially restored
